Experimental data taken from ChEMBL document CHEMBL1126349, “Synthesis and biological properties of 1069C: a new synthetic antitumour agent with very low cross-resistance potential” (Bioorg Med Chem Lett, 1992).
Values joined by “and” are separate entries in the source; they are usually repeats but may differ in a detail not shown here. Equal entries are not always repeated. Active and inactive are the calls of the source. The rule behind the calls is not given here.

Key:
P388 [1] = experiment: Compound was tested for % increase in life span of P388 tumor; format: functional, Mus musculus
P388 [2] = experiment: Compound was tested for % increase in life span of adriamycin resistant P388 tumor; format: functional, Mus musculus
P388 [3] = experiment: Compound was tested for % increase in life span of vincristine resistant P388 tumor; format: functional, Mus musculus
P388 [4] = experiment: The compound was evaluated in vitro for the P388 cell spindle disruption.; 0.006-0.009; format: functional, cell-based; conditions: Mus musculus
Tubulin alpha chain [5] = target: T1, Tubulin alpha chain (Sus scrofa, UniProt P02550); experiment: Compound was tested for competitive inhibition with radioligand [3H]colchicine at colchicine site of mammalian tubulin
[6] = target: Tubulin alpha chain (Sus scrofa) (UniProt P02550); experiment: Compound was tested for competitive inhibition with radioligand [3H]colchicine or [3H]vinblastine at alkaloid site on mammalian tubulin; No effect
P388 [7] = experiment: The compound was evaluated in vitro for the inhibition of murine leukemia P388D1 cell proliferation.; format: functional, cell-based; conditions: Mus musculus
P388 [8] = experiment: The compound was evaluated in vitro for the inhibition of P388D1 cell colony formation.; format: functional, cell-based; conditions: Mus musculus
Tubulin alpha chain [9] = target: T1, Tubulin alpha chain; experiment: In vitro mammalian brain tubulin polymerization using standard assay.; format: functional
P388 [10] = experiment: The compound was evaluated in vitro for the P388 cell spindle disruption.; 0.02-0.04; format: functional, cell-based; conditions: Mus musculus
Tubulin alpha chain [11] = target: T1, Tubulin alpha chain; experiment: The compound was evaluated in vitro for the mammalian brain tubulin polymerization using standard assay.; format: functional

T1 sequence (P02550 whole entry, looked up): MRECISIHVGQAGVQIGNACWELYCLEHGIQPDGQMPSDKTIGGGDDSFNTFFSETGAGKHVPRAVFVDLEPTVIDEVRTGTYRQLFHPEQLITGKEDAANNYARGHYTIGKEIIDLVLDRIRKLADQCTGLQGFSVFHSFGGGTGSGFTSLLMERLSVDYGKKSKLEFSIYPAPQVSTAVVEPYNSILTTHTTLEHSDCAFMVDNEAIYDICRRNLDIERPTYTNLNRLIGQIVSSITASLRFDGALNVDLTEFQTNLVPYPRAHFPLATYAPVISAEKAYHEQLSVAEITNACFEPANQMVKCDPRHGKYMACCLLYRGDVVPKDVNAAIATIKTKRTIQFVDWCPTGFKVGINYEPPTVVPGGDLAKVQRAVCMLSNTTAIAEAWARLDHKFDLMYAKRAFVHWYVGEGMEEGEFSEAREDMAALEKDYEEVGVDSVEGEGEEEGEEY
Tubulin alpha chain (Sus scrofa), sequence (P02550 whole entry, looked up): as above

Row | Compound | ILS (P388 [1]) | ILS (P388 [2]) | ILS (P388 [3]) | EC50 (P388 [4]) | Ki (Tubulin alpha chain [5]) | Activity [6] | IC50 (P388 [7]) | IC50 (P388 [8]) | IC50 (Tubulin alpha chain [9]) | EC50 (P388 [10]) | IC50 (Tubulin alpha chain [11])
1 | COC(=O)Nc1cn2nc(OCc3cc(OC)c(OC)c(OC)c3)ccc2n1 | ~147% and ~120% | ~110% | ~170% | 6 nM | 750 nM | inactive | 8.9 nM | 13 nM | 310 nM |  | 
2 | COc1cc2c(c(OC)c1OC)-c1ccc(OC)c(=O)cc1[C@@H](NC(C)=O)CC2 [COLCHICINE] | ~85% |  | ~75% |  |  |  | 0.62 nM | 71 nM |  |  | 
3 | COc1cccc2c1C(=O)c1c(O)c3c(c(O)c1C2=O)C[C@@](O)(C(=O)CO)C[C@@H]3O[C@H]1C[C@H](N)[C@H](O)[C@H](C)O1 [DOXORUBICIN] | ~120% | ~25% |  |  |  |  |  |  |  |  | 
4 | COc1cc([C@@H]2c3cc4c(cc3[C@@H](O[C@@H]3O[C@@H]5CO[C@@H](C)O[C@H]5[C@H](O)[C@H]3O)[C@H]3COC(=O)[C@H]23)OCO4)cc(OC)c1O [ETOPOSIDE] | ~80% | ~20% |  |  |  |  |  |  |  |  | 
5 | CC[C@]1(O)C[C@@H]2CN(CCc3c([nH]c4ccccc34)[C@@](C(=O)OC)(c3cc4c(cc3OC)N(C)[C@H]3[C@@](O)(C(=O)OC)[C@H](OC(C)=O)[C@]5(CC)C=CCN6CC[C@]43[C@@H]65)C2)C1 [VINBLASTINE] | ~100% |  | ~50% |  |  |  | 1.7 nM | 8.2 nM |  |  | 
6 | CC[C@]1(O)C[C@H]2CN(CCc3c([nH]c4ccccc34)[C@@](C(=O)OC)(c3cc4c(cc3OC)N(C=O)[C@H]3[C@@](O)(C(=O)OC)[C@H](OC(C)=O)[C@]5(CC)C=CCN6CC[C@]43[C@@H]65)C2)C1 [VINCRISTINE] | ~130% | ~5% | ~10% |  |  |  | 4.7 nM | 190 nM |  | 20 nM | 220 nM
